Reference: ChEMBL document CHEMBL1201862, “PubChem BioAssay data set” (2004)
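Results reflect a 48-hour exposure of cells in 96-well plates to compound at five concentrations. The concentration for 50% growth inhibition is given as GI50.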 Calls of active or inactive are those of the source. Rule as the data show it: active = GI50 up to about 1.1 µM and inactive = higher.

Key:
Test in all cases: NCI anticancer screen, dose series, 48 h
[1] = tested on: A498
[2] = tested on: OVCAR-5
[3] = tested on: HOP-62
[4] = tested on: SK-MEL-2
[5] = tested on: ACHN
[6] = tested on: NCI-H23
[7] = tested on: NCI-H226
[8] = tested on: MDA-N
[9] = tested on: HT-29
[10] = tested on: KM12
[11] = tested on: MDA-MB-231
[12] = tested on: Malme-3M
[13] = tested on: SF-295
[14] = tested on: SK-OV-3
[15] = tested on: OVCAR-3
[16] = tested on: HCT-116
[17] = tested on: SK-MEL-28
[18] = tested on: TK-10
[19] = tested on: COLO 205
[20] = tested on: LOX IMVI
[21] = tested on: MDA-MB-435
[22] = tested on: 786-0
[23] = tested on: PC-3
[24] = tested on: DU-145
[25] = tested on: CCRF-CEM
[26] = tested on: A549
[27] = tested on: T47D
[28] = tested on: RPMI-8226
[29] = tested on: HL-60
[30] = tested on: UACC-62
[31] = tested on: SF-268
[32] = tested on: SNB-19
[33] = tested on: SN12C
[34] = tested on: OVCAR-4
[35] = tested on: HCC 2998
[36] = tested on: EKVX
[37] = tested on: IGROV-1
[38] = tested on: Hs-578T
[39] = tested on: SF-539
[40] = tested on: HOP-92
[41] = tested on: HCT-15
[42] = tested on: CAKI-1
[43] = tested on: UO-31
[44] = tested on: OVCAR-8
[45] = tested on: NCI-H522
[46] = tested on: K562
[47] = tested on: RXF 393
[48] = tested on: M14
[49] = tested on: NCI-H460
[50] = tested on: U-251
[51] = tested on: MOLT-4
[52] = tested on: SK-MEL-5
[53] = tested on: MCF7
[54] = tested on: SR
[55] = tested on: SNB-75
[56] = tested on: NCI/ADR-RES
[57] = tested on: SW-620

Measured: GI50

CCN(CC)CCC1CCCCN1CC(=O)N1c2cc(Cl)ccc2NC(=O)CC1C (stereo not drawn)
inactive: [1] > 100 µM | [2] > 100 µM | [3] > 100 µM | [4] > 100 µM | [5] > 100 µM | [6] > 100 µM | [7] > 100 µM | [8] > 100 µM | [9] > 100 µM | [10] > 100 µM | [11] > 100 µM | [12] > 100 µM | [13] > 100 µM | [14] > 100 µM | [15] > 100 µM | [16] > 100 µM | [17] > 100 µM | [18] > 100 µM | [19] > 100 µM | [20] > 100 µM | [21] > 100 µM | [22] > 100 µM | [23] > 100 µM | [24] > 100 µM | [25] > 100 µM | [26] > 100 µM | [27] > 100 µM | [28] > 100 µM | [29] > 100 µM | [30] > 100 µM | [31] > 100 µM | [32] > 100 µM | [33] > 100 µM | [34] > 100 µM | [35] > 100 µM | [36] > 100 µM | [37] > 100 µM | [38] > 100 µM | [39] > 100 µM | [40] > 100 µM | [42] > 100 µM | [43] > 100 µM | [44] > 100 µM | [45] > 100 µM | [46] > 100 µM | [47] > 100 µM | [48] > 100 µM | [49] > 100 µM | [50] > 100 µM | [51] > 100 µM | [52] > 100 µM | [53] > 100 µM
> 100 µM: [41]

c1ccc(CSC2(SCc3ccccc3)CCCC2)cc1
inactive: [54] > 10 µM | [1] > 10 µM | [2] > 10 µM | [3] > 10 µM | [4] > 10 µM | [5] > 10 µM | [6] > 10 µM | [7] > 10 µM | [8] > 10 µM | [9] > 10 µM | [10] > 10 µM | [11] > 10 µM | [12] > 10 µM | [13] > 10 µM | [14] > 10 µM | [15] > 10 µM | [16] > 10 µM | [17] > 10 µM | [18] > 10 µM | [19] > 10 µM | [20] > 10 µM | [21] > 10 µM | [55] > 10 µM | [23] > 10 µM | [24] > 10 µM | [25] > 10 µM | [26] > 10 µM | [27] > 10 µM | [28] > 10 µM | [29] > 10 µM | [30] > 10 µM | [31] > 10 µM | [32] > 10 µM | [33] > 10 µM | [34] > 10 µM | [56] > 10 µM | [35] > 10 µM | [36] > 10 µM | [37] > 10 µM | [38] 6.97 µM | [39] > 10 µM | [42] > 10 µM | [43] > 10 µM | [44] > 10 µM | [45] > 10 µM | [46] > 10 µM | [47] > 10 µM | [48] > 10 µM | [49] > 10 µM | [50] > 10 µM | [57] > 10 µM | [51] > 10 µM | [52] > 10 µM | [53] > 10 µM
> 10 µM: [41]
